Laboratory results taken from the NIST ThermoML archive (doi:10.1021/je900387e).

Test: xn = mol fraction of the nth substance listed
Settings: Liquid, Pycnometric method

CCCCBr [1-bromobutane] + O=C=O
mass density [kg/m3]
Settings	316.1 K	317.9 K
7540 kPa, x1 = 0.1495	–	964
7770 kPa, x1 = 0.1495	–	967
7950 kPa, x1 = 0.0989	–	850
7990 kPa, x1 = 0.1495	–	970
8090 kPa, x1 = 0.0989	–	853
8230 kPa, x1 = 0.0683	–	777
8230 kPa, x1 = 0.1495	–	974
8330 kPa, x1 = 0.0461	–	703
8340 kPa, x1 = 0.0683	–	780
8370 kPa, x1 = 0.0461	–	705
8370 kPa, x1 = 0.0989	–	859
8450 kPa, x1 = 0.0245	–	491
8450 kPa, x1 = 0.0461	–	712
8450 kPa, x1 = 0.1495	–	977
8460 kPa, x1 = 0.0245	–	493
8480 kPa, x1 = 0.0245	–	499
8490 kPa, x1 = 0.0683	–	786
8500 kPa, x1 = 0.0245	–	506
8510 kPa, x1 = 0.0245	593	–
8530 kPa, x1 = 0.0245	–	512
8550 kPa, x1 = 0.0245	–	518
8550 kPa, x1 = 0.0461	–	721
8560 kPa, x1 = 0.0245	604	–
8570 kPa, x1 = 0.0245	–	525
8600 kPa, x1 = 0.0245	–	532
8620 kPa, x1 = 0.0245	615	540
8630 kPa, x1 = 0.0683	–	791
8650 kPa, x1 = 0.0245	–	547
8650 kPa, x1 = 0.0989	–	865
8660 kPa, x1 = 0.1495	–	980
8680 kPa, x1 = 0.0461	–	731
8690 kPa, x1 = 0.0245	627	555
8720 kPa, x1 = 0.0245	–	563
8770 kPa, x1 = 0.0245	–	571
8780 kPa, x1 = 0.0245	639	–
8790 kPa, x1 = 0.0683	–	797
8800 kPa, x1 = 0.0245	–	579
8820 kPa, x1 = 0.0245	–	583
8840 kPa, x1 = 0.0245	–	588
8840 kPa, x1 = 0.0461	–	741
8870 kPa, x1 = 0.0245	–	589
8880 kPa, x1 = 0.0245	652	–
8890 kPa, x1 = 0.0245	–	597
8920 kPa, x1 = 0.0245	–	601
8940 kPa, x1 = 0.0683	–	802
8950 kPa, x1 = 0.0989	–	871
8960 kPa, x1 = 0.0245	–	608
8960 kPa, x1 = 0.0461	–	748
8990 kPa, x1 = 0.1495	–	984
9000 kPa, x1 = 0.0245	665	–
9100 kPa, x1 = 0.0461	–	756
9130 kPa, x1 = 0.0683	–	808
9150 kPa, x1 = 0.0245	683	–
9250 kPa, x1 = 0.1495	–	987
9270 kPa, x1 = 0.0461	–	764
9300 kPa, x1 = 0.0989	–	877
9330 kPa, x1 = 0.0683	–	814
9340 kPa, x1 = 0.0245	694	–
9530 kPa, x1 = 0.0461	–	774
9540 kPa, x1 = 0.0683	–	820
9560 kPa, x1 = 0.0245	709	–
9580 kPa, x1 = 0.1495	–	990
9670 kPa, x1 = 0.0989	–	884
9770 kPa, x1 = 0.0683	–	826
9810 kPa, x1 = 0.0461	–	785
9850 kPa, x1 = 0.0245	725	–
9860 kPa, x1 = 0.1495	–	993
10030 kPa, x1 = 0.0683	–	832
10050 kPa, x1 = 0.0989	–	890
10160 kPa, x1 = 0.0461	–	796
10200 kPa, x1 = 0.0245	741	–
10240 kPa, x1 = 0.0245	743	–
10240 kPa, x1 = 0.1495	–	997
10290 kPa, x1 = 0.0245	746	–
10310 kPa, x1 = 0.0683	–	838
10350 kPa, x1 = 0.0245	750	–
10500 kPa, x1 = 0.0989	–	897
10560 kPa, x1 = 0.1495	–	1000
10590 kPa, x1 = 0.0461	–	809
10630 kPa, x1 = 0.0683	–	845
10930 kPa, x1 = 0.1495	–	1004
10940 kPa, x1 = 0.0683	–	850
10950 kPa, x1 = 0.0989	–	903
11060 kPa, x1 = 0.0461	–	821
11270 kPa, x1 = 0.1495	–	1007
11310 kPa, x1 = 0.0683	–	858
11470 kPa, x1 = 0.0989	–	910
11600 kPa, x1 = 0.0461	–	833
11690 kPa, x1 = 0.0683	–	863
11700 kPa, x1 = 0.1495	–	1011
11870 kPa, x1 = 0.0683	–	867
11890 kPa, x1 = 0.0461	–	839
